Measurements as given in ChEMBL document CHEMBL4354824, “4-Aryl-1-oxa-4,9-diazaspiro[5.5]undecane Derivatives as Dual μ-Opioid Receptor Agonists and σ1 Receptor Antagonists for the Treatment of Pain” (J Med Chem, 2020).

What was measured:
Mu-type opioid receptor [1] = target: T1, Mu-type opioid receptor (Homo sapiens, UniProt P35372); experiment: Agonist activity at human MOR expressed in CHOK1 cells assessed as […] of cAMP accumulation incubated for 45 mins by HTRF assay; format: functional, cell-based
T1 sequence (P35372 whole entry): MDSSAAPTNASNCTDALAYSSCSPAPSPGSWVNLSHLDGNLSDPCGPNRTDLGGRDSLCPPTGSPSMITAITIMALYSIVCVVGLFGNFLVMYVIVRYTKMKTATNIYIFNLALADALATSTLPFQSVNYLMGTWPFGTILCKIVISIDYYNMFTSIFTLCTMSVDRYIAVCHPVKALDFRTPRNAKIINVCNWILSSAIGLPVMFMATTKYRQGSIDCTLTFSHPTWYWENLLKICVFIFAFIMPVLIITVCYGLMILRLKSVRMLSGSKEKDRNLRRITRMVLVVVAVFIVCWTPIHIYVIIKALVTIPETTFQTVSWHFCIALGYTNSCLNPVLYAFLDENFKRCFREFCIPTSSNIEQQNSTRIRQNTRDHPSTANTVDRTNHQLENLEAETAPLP

[2] = target: Voltage-gated inwardly rectifying potassium channel KCNH2 (Homo sapiens, UniProt Q12809)
Voltage-gated inwardly rectifying potassium channel KCNH2, sequence (Q12809 whole entry): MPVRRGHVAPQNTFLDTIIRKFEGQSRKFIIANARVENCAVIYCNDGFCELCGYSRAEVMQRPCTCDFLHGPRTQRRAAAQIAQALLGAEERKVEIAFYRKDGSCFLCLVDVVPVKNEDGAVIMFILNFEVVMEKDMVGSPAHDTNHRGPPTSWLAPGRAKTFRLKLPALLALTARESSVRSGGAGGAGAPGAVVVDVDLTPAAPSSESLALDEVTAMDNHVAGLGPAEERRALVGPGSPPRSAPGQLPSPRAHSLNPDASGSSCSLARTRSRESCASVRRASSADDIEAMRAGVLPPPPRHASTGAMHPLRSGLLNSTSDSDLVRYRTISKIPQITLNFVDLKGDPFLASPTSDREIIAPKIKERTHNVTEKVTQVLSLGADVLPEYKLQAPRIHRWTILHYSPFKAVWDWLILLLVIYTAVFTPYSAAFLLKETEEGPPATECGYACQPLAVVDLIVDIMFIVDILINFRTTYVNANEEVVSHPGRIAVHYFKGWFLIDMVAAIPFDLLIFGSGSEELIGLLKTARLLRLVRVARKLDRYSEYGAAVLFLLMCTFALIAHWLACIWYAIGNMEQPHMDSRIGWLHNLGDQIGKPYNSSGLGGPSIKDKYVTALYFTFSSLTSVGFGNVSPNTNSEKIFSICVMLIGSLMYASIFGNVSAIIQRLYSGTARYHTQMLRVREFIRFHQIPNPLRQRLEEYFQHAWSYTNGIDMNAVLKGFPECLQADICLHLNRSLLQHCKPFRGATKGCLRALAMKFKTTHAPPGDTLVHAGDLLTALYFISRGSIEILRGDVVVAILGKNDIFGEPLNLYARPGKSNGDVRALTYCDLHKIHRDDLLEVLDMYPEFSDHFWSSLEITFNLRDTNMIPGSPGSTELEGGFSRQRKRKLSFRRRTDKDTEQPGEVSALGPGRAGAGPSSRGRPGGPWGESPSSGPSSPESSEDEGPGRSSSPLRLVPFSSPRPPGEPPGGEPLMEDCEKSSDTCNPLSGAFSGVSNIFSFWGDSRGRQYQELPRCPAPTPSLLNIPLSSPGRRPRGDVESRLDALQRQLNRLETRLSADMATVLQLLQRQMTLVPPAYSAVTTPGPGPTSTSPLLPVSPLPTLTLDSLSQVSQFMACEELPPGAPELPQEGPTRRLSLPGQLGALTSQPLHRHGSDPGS
Description: Inhibition of human ERG expressed in CHOK1 cells assessed as reduction in channel current at -80 mV holding potential by whole cell patch clamp assay

Mu-type opioid receptor [3] = target: T1, Mu-type opioid receptor; experiment: biochemical
Description: Displacement of [3H]-DAMGO from human MOR expressed in CHOK1 cell membranes incubated for 60 mins by liquid scintillation counting method

[4] = target: T2, Alpha-1A adrenergic receptor (Homo sapiens) (UniProt P35348); experiment: Displacement of [3H]-prazosin from human alpha1A adrenoreceptor expressed in enriched membranes at 1 uM incubated for 90 mins by liquid scintillation counting method relative to control; format: cell membranes
T2 sequence (whole entry): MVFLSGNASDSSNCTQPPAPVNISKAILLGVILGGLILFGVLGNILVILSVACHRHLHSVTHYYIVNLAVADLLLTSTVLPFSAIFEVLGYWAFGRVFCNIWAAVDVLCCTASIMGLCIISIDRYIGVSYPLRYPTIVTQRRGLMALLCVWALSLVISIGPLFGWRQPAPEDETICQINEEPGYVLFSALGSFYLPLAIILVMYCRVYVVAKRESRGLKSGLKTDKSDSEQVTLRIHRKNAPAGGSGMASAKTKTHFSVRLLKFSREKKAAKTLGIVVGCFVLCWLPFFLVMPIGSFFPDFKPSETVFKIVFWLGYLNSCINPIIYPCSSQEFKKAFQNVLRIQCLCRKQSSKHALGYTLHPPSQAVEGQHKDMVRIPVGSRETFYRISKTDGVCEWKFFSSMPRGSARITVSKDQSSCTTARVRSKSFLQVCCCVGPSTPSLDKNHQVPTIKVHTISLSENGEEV

[5] = target: Sigma non-opioid intracellular receptor 1 (Homo sapiens, UniProt Q99720); experiment: Displacement of [3H]-(+)-pentazocine from human sigma-1 receptor expressed in HEK293 membranes incubated for 120 mins by liquid scintillation counting method
Sigma non-opioid intracellular receptor 1, sequence (Q99720 whole entry): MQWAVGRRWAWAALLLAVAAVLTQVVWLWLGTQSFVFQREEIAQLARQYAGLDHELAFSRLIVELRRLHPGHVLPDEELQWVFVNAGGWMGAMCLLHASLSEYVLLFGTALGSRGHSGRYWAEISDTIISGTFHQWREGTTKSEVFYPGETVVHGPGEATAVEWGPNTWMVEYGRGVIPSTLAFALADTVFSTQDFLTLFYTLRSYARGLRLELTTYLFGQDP

Mu-type opioid receptor [6] = target: T1, Mu-type opioid receptor; experiment: Agonist activity at human MOR expressed in CHOK1 cells assessed as […] of cAMP accumulation incubated for 45 mins by HTRF assay relative to DAMGO; format: functional, cell-based
Mu-type opioid receptor [7] = target: T1, Mu-type opioid receptor; experiment: Agonist activity at human MOR expressed in CHOK1 cells assessed as […] of cAMP accumulation at 1 uM incubated for 45 mins by HTRF assay; format: functional, cell-based
Mu-type opioid receptor [8] = target: T1, Mu-type opioid receptor; experiment: Displacement of [3H]-DAMGO from human MOR expressed in CHOK1 cell membranes at 1 uM incubated for 60 mins by liquid scintillation counting method

SMILES	EC50 (Mu-type opioid receptor [1]) [nM]	IC50 [2] [nM]	Ki (Mu-type opioid receptor [3]) [nM]	inhibition [4] [%]	Ki [5] [nM]	Emax (Mu-type opioid receptor [6]) [%]	Activity (Mu-type opioid receptor [7]) [%]	inhibition (Mu-type opioid receptor [8]) [%]
CC1OC2(CCN(CCc3ccccc3)CC2)CN(c2ccccc2Cl)C1=O (stereo unspecified)	1	1000	3	75	8	96	–	–
CC1OC2(CCN(CCc3cccc(F)c3)CC2)CN(c2ccccc2)C1=O (stereo unspecified)	13	600	10	74	8	94	–	–
CC1OC2(CCN(CCc3ccccc3)CC2)CN(c2ccccn2)C1=O (stereo unspecified)	1990	–	930	63	13	50	–	–
CC1OC2(CCN(CCc3ccncc3)CC2)CN(c2ccccc2)C1=O (stereo unspecified)	1420	–	516	30	112	81	–	–
CC1OC2(CCN(CCc3cccnc3)CC2)CN(c2ccccc2)C1=O (stereo unspecified)	853	–	117	67	91	85	–	–
COc1ccccc1N1CC2(CCN(CCc3ccccc3)CC2)OC(C)C1=O (stereo unspecified)	144	–	57	78	38	81	–	–
CC1OC2(CCN(CCc3ccccn3)CC2)CN(c2ccccc2)C1=O (stereo unspecified)	229	2000	90	49	53	85	–	–
O=C1N(c2ccccc2)CC2(CCN(CCc3ccccc3)CC2)OC12CC2	11	1200	15	87	9	93	–	–
COc1cccc(N2CC3(CCN(CCc4ccccc4)CC3)OC(C)C2=O)c1 (stereo unspecified)	304	1000	126	82	15	88	–	–
O=C1OC2(CCN(CCc3ccccc3)CC2)CN1c1ccccc1	> 1000	–	401	–	55	–	< 50	–
CC1OC2(CCN(CCc3ccccc3)CC2)CN(c2cnccn2)C1=O (stereo unspecified)	527	100	304	64	13	55	–	–
CC1OC2(CCN(CCc3ccccc3)CC2)CN(c2cccc(C(F)(F)F)n2)C1=O (stereo unspecified)	219	–	90	95	8	91	–	–
CC1OC2(CCN(CCc3ccccc3)CC2)CN(c2ccccc2O)C1=O (stereo unspecified)	> 1000	–	535	66	51	–	< 50	–
COC(=O)CC1OC2(CCN(CCc3ccccc3)CC2)CN(c2ccccc2)C1=O (stereo unspecified)	181	200	92	72	54	85	–	–
O=C1C(CO)OC2(CCN(CCc3ccccc3)CC2)CN1c1ccccc1 (stereo unspecified)	125	1100	46	55	209	88	–	–
C[C@H]1OC2(CCN(CCc3ccccc3F)CC2)CN(c2cnccc2C(F)(F)F)C1=O	26	6300	11	54	61	100	–	–
CN(C)C(=O)CC1OC2(CCN(CCc3ccccc3)CC2)CN(c2ccccc2)C1=O (stereo unspecified)	> 1000	–	636	–	275	–	< 50	–
C[C@H]1OC2(CCN(CCc3ccccc3)CC2)CN(c2ccccc2)C1=O	–	–	–	75	21	95	–	–
CC1OC2(CCN(CCc3ccccn3)CC2)CN(c2cnccc2C(F)(F)F)C1=O (stereo unspecified)	767	–	127	47	622	93	–	–
O=C1C(COCc2ccccc2)OC2(CCN(CCc3ccccc3)CC2)CN1c1ccccc1 (stereo unspecified)	107	100	40	94	40	96	–	–
CC1OC2(CCN(CCc3ccccc3)CC2)CN(c2ccccc2)C1=O (racemic)	–	–	–	–	6	–	–	–
CC1OC2(CCN(CCc3cccc(C#N)c3)CC2)CN(c2ccccc2)C1=O (stereo unspecified)	61	600	49	80	28	88	–	–

SMILES	EC50 (Mu-type opioid receptor [1]) [nM]	IC50 [2] [nM]	Ki (Mu-type opioid receptor [3]) [nM]	inhibition [4] [%]	Ki [5] [nM]	Emax (Mu-type opioid receptor [6]) [%]	Activity (Mu-type opioid receptor [7]) [%]	inhibition (Mu-type opioid receptor [8]) [%]
CC(C)C1OC2(CCN(CCc3ccccc3)CC2)CN(c2ccccc2)C1=O (stereo unspecified)	0.2	1200	1	65	10	96	–	–
CC1OC2(CCN(CCc3ccccc3)CC2)CN(c2cncc(C(F)(F)F)c2)C1=O (stereo unspecified)	721	500	261	87	14	92	–	–
CC1OC2(CCN(CCc3ccccc3)CC2)CN(c2ccncc2)C1=O (stereo unspecified)	> 1000	–	> 1000	68	88	–	< 50	< 50
CC1OC2(CCN(CCc3ccccc3)CC2)CN(c2ccc(O)cc2)C1=O (stereo unspecified)	> 1000	–	606	68	122	–	< 50	–
C[C@H]1OC2(CCN(CCc3ccccc3F)CC2)CN(c2ncccc2C(F)(F)F)C1=O	65	6600	34	50	103	98	–	–
CC1OC2(CCN(CCc3ccccc3)CC2)CN(c2cnccc2C(F)(F)F)C1=O (stereo unspecified)	25	3300	28	58	63	96	–	–
CC1OC2(CCN(CCc3ccccc3)CC2)CN(c2cccnc2C(F)(F)F)C1=O (stereo unspecified)	186	3800	123	55	48	87	–	–
CC1OC2(CCN(CCc3ccccc3)CC2)CN(c2cccnc2)C1=O (stereo unspecified)	627	–	304	69	68	54	–	–
C[C@@H]1OC2(CCN(CCc3ccccc3)CC2)CN(c2ccccc2)C1=O	–	–	–	68	14	83	–	–
CC1OC2(CCN(CCc3ccccc3)CC2)CN(c2cncc(F)c2)C1=O (stereo unspecified)	230	1100	204	85	3	87	–	–
CC1OC2(CCN(CCc3ccccc3)CC2)CN(c2ncccc2F)C1=O (stereo unspecified)	199	1200	93	77	39	90	–	–
CC1OC2(CCN(CCc3ccccc3)CC2)CN(c2ccccc2F)C1=O (stereo unspecified)	4	1200	8	68	11	94	–	–
CC1OC2(CCN(CCc3ccccc3)CC2)CN(c2ncccc2C(F)(F)F)C1=O (stereo unspecified)	343	8200	262	60	54	100	–	–
CC1(C)OC2(CCN(CCc3ccccc3)CC2)CN(c2ccccc2)C1=O	4	100	3	92	13	98	–	–
COCC1OC2(CCN(CCc3ccccc3)CC2)CN(c2ccccc2)C1=O (stereo unspecified)	32	1900	13	63	32	90	–	–
O=C1COC2(CCN(Cc3ccccc3)CC2)CN1c1ccccc1	3040	–	534	–	26	74	–	–
CCC1OC2(CCN(CCc3ccccc3)CC2)CN(c2ccccc2)C1=O (stereo unspecified)	1	400	3	75	6	99	–	–
O=C1COC2(CCN(CCc3ccccc3)C2)CN1c1ccccc1 (stereo unspecified)	> 1000	–	> 1000	–	53	–	< 50	< 50
CC1OC2(CCN(CCc3ccc(F)cc3)CC2)CN(c2ccccc2)C1=O (stereo unspecified)	25	100	19	80	11	95	–	–
CC(=O)Nc1ccccc1CCN1CCC2(CC1)CN(c1ccccc1)C(=O)C(C)O2 (stereo unspecified)	342	–	190	68	656	95	–	–
CC1OC2(CCN(CCc3ccccc3F)CC2)CN(c2ccccc2)C1=O (stereo unspecified)	–	–	–	81	–	95	–	–
CC1OC2(CCN(CCc3ccccc3)CC2)CN(c2cccc(O)c2)C1=O (stereo unspecified)	> 1000	–	727	67	55	–	< 50	–
